In the NIST ThermoML archive (doi:10.1007/s10765-012-1371-1):

Assay: xn = mol fraction of the nth substance listed
Conditions: 101 kPa, Liquid

CCCCOCC [butyl ethyl ether] + CCC(C)Cl
viscosity [mPa·s]
Conditions | 283.15 K | 288.15 K | 293.15 K | 298.15 K | 303.15 K | 308.15 K | 313.15 K
x2 = 0 | 0.4796 | 0.4509 | 0.4242 | 0.399 | 0.3756 | 0.356 | 0.3416
x2 = 0.0525 | 0.4785 | 0.4498 | 0.4233 | 0.3983 | 0.3749 | 0.3552 | 0.3404
x2 = 0.0974 | 0.4776 | 0.4489 | 0.4223 | 0.3974 | 0.374 | 0.3541 | 0.3392
x2 = 0.2001 | 0.475 | 0.4462 | 0.4203 | 0.3963 | 0.3732 | 0.3533 | 0.3379
x2 = 0.3027 | 0.4724 | 0.4436 | 0.4183 | 0.395 | 0.3724 | 0.3529 | 0.3372
x2 = 0.4 | 0.4697 | 0.4409 | 0.4165 | 0.394 | 0.3718 | 0.3523 | 0.3364
x2 = 0.5248 | 0.4665 | 0.4384 | 0.4148 | 0.3933 | 0.3716 | 0.3523 | 0.3361
x2 = 0.6016 | 0.4647 | 0.4368 | 0.4139 | 0.393 | 0.3716 | 0.3523 | 0.336
x2 = 0.7006 | 0.463 | 0.4353 | 0.413 | 0.393 | 0.3721 | 0.353 | 0.3363
x2 = 0.7993 | 0.462 | 0.4346 | 0.4132 | 0.3939 | 0.3735 | 0.3545 | 0.3376
x2 = 0.8997 | 0.4619 | 0.4349 | 0.4143 | 0.3959 | 0.3759 | 0.3569 | 0.3396
x2 = 0.9502 | 0.4623 | 0.4356 | 0.4152 | 0.3972 | 0.3775 | 0.3587 | 0.3414

CCCCOCC [butyl ethyl ether] + CCCCCl
viscosity [mPa·s]
Conditions | 283.15 K | 288.15 K | 293.15 K | 298.15 K | 303.15 K | 308.15 K | 313.15 K
x2 = 0 | 0.4796 | 0.4509 | 0.4242 | 0.399 | 0.3756 | 0.356 | 0.3416
x2 = 0.0515 | 0.4815 | 0.4523 | 0.4254 | 0.4002 | 0.3771 | 0.3576 | 0.3426
x2 = 0.1016 | 0.4832 | 0.4536 | 0.4265 | 0.4014 | 0.3785 | 0.359 | 0.3435
x2 = 0.2008 | 0.4862 | 0.4561 | 0.4286 | 0.4036 | 0.3812 | 0.3618 | 0.3452
x2 = 0.3003 | 0.489 | 0.4583 | 0.4307 | 0.4058 | 0.3839 | 0.365 | 0.3473
x2 = 0.4002 | 0.4914 | 0.4604 | 0.4326 | 0.408 | 0.3868 | 0.368 | 0.3493
x2 = 0.5014 | 0.4934 | 0.4623 | 0.4345 | 0.4102 | 0.3895 | 0.3712 | 0.3514
x2 = 0.6023 | 0.4951 | 0.4641 | 0.4364 | 0.4123 | 0.3925 | 0.3744 | 0.3537
x2 = 0.7003 | 0.4965 | 0.4657 | 0.4381 | 0.4145 | 0.3954 | 0.3777 | 0.3559
x2 = 0.8004 | 0.4977 | 0.4672 | 0.4398 | 0.4167 | 0.3985 | 0.381 | 0.3585
x2 = 0.9006 | 0.4986 | 0.4687 | 0.4416 | 0.4191 | 0.4016 | 0.3846 | 0.3612
x2 = 0.9502 | 0.4989 | 0.4694 | 0.4424 | 0.4201 | 0.4033 | 0.3866 | 0.3627
